Results on one compound are retold here after US20210094922A1, “Dyes for Analysis of Soluble Protein Aggregates or Misfolded Protein Oligomers” (The Penn State Research Foundation, priority 2018, published 2021).

Series [1] in a line: Photophysical parameters of fluorophores in glycerol. Type of series: physicochemical. As to the method:
FP analogues (20 μM) were prepared in glycerol:H2O mixture with increasing glycerol concentrations. In addition, fluorescence intensity in 1,4-dioxane was measured to evaluate their response to polarity. Fluorescence measurement was carried out using a Tecan infinite M1000Pro fluorescence microplate reader at excitation and emission wavelengths as indicated. All readings were normalized against the fluorescence intensity in 100% glycerol as 1. Error bars: standard error (n=3).
FP analogues (20 μM) were prepared in glycerol. Spectra were collected with emission wavelength of 420 nm for 1, 525 nm for 2, 620 nm for 3, 3a and 3b. All measurements were carried out using a Tecan infinite M1000Pro fluorescence microplate reader.
FP analogues (20 μM) were prepared in glycerol. Spectra were collected with excitation wavelength of 370 nm for 1, 455 nm for 2, 530 nm for 3 and 3b, 485 nm for 3a. All measurements were carried out using a Tecan infinite M1000Pro fluorescence microplate reader.
FP analogues (10 μM) were prepared in glycerol. Spectra were collected with 10 mm quartz cuvette. All measurements were carried out using Agilent 300 UV-Vis spectrophotometer.
However, the quantum yield (QY, Φ=0.001 for 1 and Φ=0.027 for 2 in glycerol, Table 2) was much lower than that of a GFP (Φ=0.79).

Series [2] concerns the target bovine serum albumin and sodium dodecyl sulfate (Bos taurus, UniProt P02769). Nature of the series: Fluorescence background response to BSA and SDS. To be noted: incubated with BSA or SDS. As to the method:
20 µM of fluorophores were incubated in H2O, glycerol, dioxane, BSA (2 mg/mL), or SDS (0.2%). Intensities were normalized against the value in either 100% glycerol as 1 for CCVJ and 4, or dioxane as 1 for SBD. Parameters for fluorescence measurement: SBD (Ex=450 nm/Em=545 nm), CCVJ (Ex=450 nm/Em=500 nm), 4 (Ex=530 nm/Em=630 nm). Error bars: standard error (n=3).

Another series has as its target SOD1-A4V-Halo (Homo sapiens, UniProt P00441, A5V). Nature of the series: In vitro heat-induced aggregation of SOD1-A4V-Halo conjugates. It is filed as biochemical. The source says: (B-C) Excitation and emission spectra of 4 (with misfolded oligomers of SOD1-A4V-Halo) and 5 (with insoluble aggregates of SOD1-A4V-Halo).
The inventors installed Halo-tag reactive warhead to 2, resulting in 5.

Series [3] deals with SOD1(V31A)-Halo (Rhodococcus rhodochrous, UniProt P0A3G2, A155T/A167V/A172T/A224E/C128F/C176G/D78G/E160K/E257K/H272N/K175M/K195N/L47V/L88M/N227D/P291S/S58T/T264A/Y273L/Y87F). Nature of the series: In vitro heat-induced aggregation of purified SOD1(V31A)-Halo-4 conjugate. Type of series: biochemical. More on the design: made in house; host or cells: E. coli BL21 DE3* (pET29b; pBAD σ32-I54N co-expressed). The protocol: (§1) (a) Purified SOD1(V31A)-Halo and Halo-Tag proteins (42 μM), both of which were conjugated with 4 (21 μM), were incubated at varying temperatures (25, 37, 38.9, 41.8, 45.6, 50.7, 54.5, 57.2, and 59° C.). As control samples, 4 (21 μM) was prepared in buffer, 1,4-dioxane, glycerol, BSA (2 mg/mL). Fluorescence intensity was recorded at Ex=530 nm/Em=600 nm. All readings were normalized to intensity of the Halo-Tag-4 conjugate at 25° C. Fluorescence of protein samples was also visualized via UV transilluminator. In addition, protein samples were centrifuged at 21,000 g for 30 min at 4° C. to analyze their insoluble fraction using fluorescence of 4 as signal on SDS-PAGE gel. […] This fluorescence was not originated from aggregation of Halo-Tag domain, as evidenced by the low fluorescence of the Halo-4 conjugate and lack of significant insoluble fraction at these temperatures. Error bars: standard error (n=3). (b) Purified SOD1(V31A)-Halo and Halo-Tag proteins ([…]) were conjugated with 4 (21 μM) and incubated at 54.5° C. Fluorescence was recorded using Agilent Carey Eclipse fluorescence spectrophotometer with temperature control. Buffer condition: 50 mM Tris-HCl, pH 7.5, 100 mM NaCl, 83 mM EDTA. Parameters for fluorescence measurement: 4 (Ea=530 nm/Em=600 nm).
Chain of SOD1(V31A)-Halo (Rhodococcus rhodochrous, UniProt P0A3G2, A155T/A167V/A172T/A224E/C128F/C176G/D78G/E160K/E257K/H272N/K175M/K195N/L47V/L88M/N227D/P291S/S58T/T264A/Y273L/Y87F) (P0A3G2 other isoform, or with tags, fused parts or gaps with the stated changes): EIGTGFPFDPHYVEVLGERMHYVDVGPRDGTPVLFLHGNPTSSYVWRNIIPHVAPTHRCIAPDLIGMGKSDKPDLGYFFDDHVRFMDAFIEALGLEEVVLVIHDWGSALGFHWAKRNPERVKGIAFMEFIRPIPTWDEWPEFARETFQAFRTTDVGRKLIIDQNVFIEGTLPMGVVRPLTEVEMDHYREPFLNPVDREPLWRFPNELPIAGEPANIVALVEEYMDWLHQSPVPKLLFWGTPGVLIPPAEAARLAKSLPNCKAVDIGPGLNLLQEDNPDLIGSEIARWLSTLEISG
(§2) (a) Purified SOD1(V31A)-Halo (42 μM) was conjugated with 4 (21 μM) and incubated at 54.5° C. Fluorescence was recorded using Agilent Carey Eclipse fluorescence spectrophotometer with temperature control. Turbidity was recorded using Agilent 300 UV-Vis spectrophotometer. Buffer condition: 50 mM Tris-HCl, pH 7.5, 100 mM NaCl, 83 mM EDTA. (b) Kinetics of fluorescence increases from the SOD1(V31A)-Halo-4 conjugate (red curve) was compared to the kinetics of protein misfolding (black curve) as measured by Tryptophan fluorescence change. Fluorescence was recorded using Agilent Carey Eclipse fluorescence spectrophotometer with temperature control. Experiments were carried out at 54.5° C. Parameters for fluorescence measurement: 4 (Ex=530 nm/Em=600 nm) and Trp (Ex=290 nm/Em=330 and 345 nm). Error bars: standard error (n=3).

The target in series [4] is SOD1(V31A)-Halo (UniProt P00441+P0A3G2, A155T/A167V/A172T/A224E/C128F/C176G/D78G/E160K/E257K/H272N/K175M/K195N/L47V/L88M/N227D/S58T/T264A/V32A/Y273L/Y87F). Described as above. It is filed as biochemical. More on the design: made in house; host or cells: E. coli BL21 DE3* (pET29b; pBAD σ32-I54N co-expressed). As to the method:
as §1, §2

Where [5] appears, read: 4 with misfolded oligomers, 5 with insoluble aggregates of SOD1-A4V-Halo.

Chain of SOD1(V31A)-Halo (UniProt P00441+P0A3G2, A155T/A167V/A172T/A224E/C128F/C176G/D78G/E160K/E257K/H272N/K175M/K195N/L47V/L88M/N227D/S58T/T264A/V32A/Y273L/Y87F) (P00441+P0A3G2 fused with the stated changes): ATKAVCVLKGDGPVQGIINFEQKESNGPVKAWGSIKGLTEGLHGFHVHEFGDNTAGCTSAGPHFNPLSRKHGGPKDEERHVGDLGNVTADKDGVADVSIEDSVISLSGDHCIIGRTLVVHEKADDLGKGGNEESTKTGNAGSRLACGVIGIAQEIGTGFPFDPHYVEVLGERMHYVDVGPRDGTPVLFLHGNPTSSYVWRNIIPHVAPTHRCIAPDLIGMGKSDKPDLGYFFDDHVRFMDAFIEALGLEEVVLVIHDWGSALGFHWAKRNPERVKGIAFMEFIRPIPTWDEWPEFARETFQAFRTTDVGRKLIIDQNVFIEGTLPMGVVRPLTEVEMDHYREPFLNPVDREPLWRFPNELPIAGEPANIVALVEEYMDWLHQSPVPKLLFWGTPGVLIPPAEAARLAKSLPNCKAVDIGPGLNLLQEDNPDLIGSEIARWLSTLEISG
Chain of SOD1-A4V-Halo (P00441 with tags, fused parts or gaps A5V): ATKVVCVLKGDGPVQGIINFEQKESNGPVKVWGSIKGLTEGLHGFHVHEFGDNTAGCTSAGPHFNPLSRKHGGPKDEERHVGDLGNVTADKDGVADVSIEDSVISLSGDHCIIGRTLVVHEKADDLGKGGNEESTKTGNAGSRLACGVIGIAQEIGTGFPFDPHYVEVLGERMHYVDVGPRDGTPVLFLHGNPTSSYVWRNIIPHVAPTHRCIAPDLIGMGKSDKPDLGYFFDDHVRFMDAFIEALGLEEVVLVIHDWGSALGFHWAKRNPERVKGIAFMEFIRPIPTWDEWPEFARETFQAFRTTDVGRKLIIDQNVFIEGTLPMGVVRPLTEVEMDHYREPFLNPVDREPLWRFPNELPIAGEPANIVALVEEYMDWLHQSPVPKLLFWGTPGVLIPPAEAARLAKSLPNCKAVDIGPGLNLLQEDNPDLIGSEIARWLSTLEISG
Chain of bovine serum albumin and sodium dodecyl sulfate (P02769 25-607): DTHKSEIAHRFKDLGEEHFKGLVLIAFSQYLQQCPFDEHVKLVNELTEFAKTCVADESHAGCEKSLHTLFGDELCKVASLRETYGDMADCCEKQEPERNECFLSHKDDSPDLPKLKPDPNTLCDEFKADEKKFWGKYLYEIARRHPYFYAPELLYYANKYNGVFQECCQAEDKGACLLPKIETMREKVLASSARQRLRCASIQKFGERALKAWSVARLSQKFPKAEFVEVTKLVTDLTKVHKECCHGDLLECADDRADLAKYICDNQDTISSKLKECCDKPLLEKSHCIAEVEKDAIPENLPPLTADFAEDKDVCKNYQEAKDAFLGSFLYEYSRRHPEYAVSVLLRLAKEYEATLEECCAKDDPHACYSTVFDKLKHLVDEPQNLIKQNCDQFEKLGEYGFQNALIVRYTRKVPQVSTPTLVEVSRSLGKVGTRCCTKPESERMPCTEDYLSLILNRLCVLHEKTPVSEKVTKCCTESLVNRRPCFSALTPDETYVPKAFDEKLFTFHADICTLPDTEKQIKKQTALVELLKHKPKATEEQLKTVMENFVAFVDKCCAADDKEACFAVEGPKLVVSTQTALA

`CN(C)c1ccc(/C=C2N=C(/C=C/c3ccc(N(CCO)CCO)cc3)N(CC(=O)N[C@H]3CC[C@H](C(=O)NCCOCCOCCCCCCCl)CC3)C\2=O)cc1` [Compound 4, (1r,4r)-4-(2-((Z)-2-((E)-4-(bis(2-hydroxyethyl)amino)styryl)-4-(4-(dimethylamino)benzylidene)-5-oxo-4,5-dihydro-1H-imidazol-1-yl)acetamido)-N-(2-(2-((6-chlorohexyl)oxy)ethoxy)ethyl)cyclohexanecarboxamide]: in series [1], the “fluorescent properties of 4 compared with 3” value was “identical to 3”. Moreover, in series [1] (calculated using B = Φϵ), the “B (brightness)” value is listed as 8,734 M^−1cm^−1. Also, in series [1] (in glycerol), the “Φ (quantum yield)” value worked out at 0.230, the λem stood at 628 nm and the λex is given as 530 nm. This compound also gave a λabs in series [1] (maximum absorbance measured in glycerol) of 534 nm. The “ϵ (extinction coefficient)” value in series [1] (measured in glycerol) was 36,241 M^−1cm^−1. For the same compound, the “fluorescent background signal versus SBD and CCVJ” value in series [2] is reported as “substantially lower fluorescent background signal”. At SOD1-A4V-Halo (setting [5]), this compound gave an Em of 600 nm and an Ex of 530 nm. Also, the “kinetics of fluorescence increase versus turbidity” value on SOD1-A4V-Halo (SOD1-A4V-Halo conjugate) is given as “faster than that of turbidity”. In addition, on SOD1(V31A)-Halo [3], the “fluorescence of the Halo-4 conjugate control under heat” value is given as “remained non-fluorescent under all heat conditions”. Besides, the “fluorescence of the SOD1(V31A)-Halo-4 conjugate under heat” value at SOD1(V31A)-Halo [4] is “increased in the absence of insoluble protein aggregates”. Moreover, at SOD1(V31A)-Halo [4] (54.5° C.), the “kinetics of fluorescence increase versus turbidity” value is “much faster than the kinetics of turbidity” and the “kinetics of fluorescence versus protein misfolding” value is “coincided with the kinetics of protein misfolding”.
